# Assay results from patent publication US20220041641A1, “QUATERNARY AMMONIUM SALTS AS INHIBITORS OF TRIMETHYLAMINE PRODUCTION” (Senda Biosciences, Inc., priority 2018, published 2022).
# Where a name gives a salt, the structure may show the parent alone.
# Assays:
# [1] = molecular target: CutC from Proteus mirabilis (Proteus mirabilis, UniProt B4EYG1); assay: Cell-based assay for TMA production from a native producer (P. mirabilis); conditions: d9-TMA from 1 mM d9-choline, 5 h, 37° C.; value 10 given when no fit or % TMA remaining at 10 μM higher than 15%; read-out: Average IC50 Whole cell P. mirabilis
# How it was run: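 Overnight anaerobic cultures of P. mirabilis or C. sporogenes, grown in BHI with 1 mM choline, were diluted and given 1 mM (trimethyl-d9)-choline plus compound at 10 μM final. After 5 h at 37° C., d9-TMA was quantified by LCMS.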
# [2] = assay type: in vitro ADME; conditions: simulated gi fluid, 1 µM, pH 1.6
# Method: This assay was used to assess the stability of a conjugate in a stomach.
# Medium was prepared by dissolving 2 g of sodium chloride in 0.6 L in ultrapure water (MilliQ®, Millipore Sigma, Darmstadt, Germany). The pH was adjusted to 1.6 with 1N hydrochloric acid, and the volume was then adjusted to 1 L with purified water.
# 60 mg FaSSIF powder (Biorelevant™, London, UK) were dissolved in 500 mL buffer (above). Pepsin was added (0.1 mg/mL) (Millipore Sigma, Darmstadt, Germany), and the solution was stirred. The resulting SGF media were used fresh for each experiment.
# (§1) Test compounds were dissolved in DMSO stock to 1 mM. An aliquot of the DMSO stock solution was removed and diluted in the SGF Media in 15 mL falcon tubes to generate a total compound concentration of 1 μM. A 1 mL aliquot was immediately removed and diluted once with 1 volume of acetonitrile for T0 timepoint. The mixture was sealed and mixed at 37° C. in an incubator. Aliquots (1 mL) were removed at regular intervals and immediately quenched by the addition of 1 volume of acetonitrile. The resulting samples were analyzed by LCMS to determine degradation rates in SGF.
# [3] = assay type: in vitro ADME; conditions: simulated gi fluid, 1 µM, pH 6.7
# Method: This assay was used to assess the stability of a conjugate in a small intestine.
# Phosphate buffer was prepared by dissolving 0.42 g of sodium hydroxide pellets and 3.95 g of monobasic sodium phosphate monohydrate and 6.19 g of sodium chloride in ultrapure water (MilliQ®, Millipore Sigma, Darmstadt, Germany). The pH was adjusted to 6.7 using aq. HCl and aq. NaOH, as necessary, and the solution was diluted with ultrapure water to produce 1 L of the pH 6.7 buffer.
# 112 mg FaSSIF powder (Biorelevant™, London, UK) was dissolved in 50 mL of the pH 6.7 buffer. 2 to 3 mL of the resulting solution were then added to 500 mg pancreatin (Millipore Sigma, Darmstadt, Germany). The resulting mixture was agitated by finger tapping the vessel containing the mixture until milky suspension formed. At this time, the remainder of the 50 mL FaSSiF/pH 6.7 buffer solution was added. The resulting suspension was flipped upside down 10 times to produce SIF, which was used fresh.
# as §1, with “SIF media” for “SGF Media”, “produce” for “generate”, “mixture with a tested” for “total”, “agitated” for “mixed”, “rates.” for “rates in SGF.”
# [4] = assay type: in vitro ADME; conditions: 1 µM
# Method: This assay was used to assess the stability of a conjugate in a large intestine.
# All experiments were performed in an anaerobic chamber containing 90% nitrogen, 5% hydrogen and 5% carbon dioxide. Colonic material was resuspended as a slurry (15% w/v final concentration) in pre-reduced, anaerobically sterilized dilution blanks (Anaerobe Systems AS-908). The colonic material was then inoculated into 96 well plates containing YCFAC media (Anaerobe Systems AS-680, 6.7 μL slurry into 1 mL total media). A compound was added to each individual well to reach a final analyte concentration of 1 μM, and the material was mixed by pipetting. Each sample was removed after set timepoints (0, 120, 240, 480, 1440, 2880 minutes after initiation of the assay), quenched with acetonitrile containing internal standard, and analyzed by LCMS.
# CutC/D enzyme = assay: Acute mouse model (plasma TMAO on choline diet); assay type: in vivo, male C57BL/6 mice
# How it was run: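 Male C57BL/6 mice fed a diet with 1.0% choline (g/g) received compound in water by oral gavage once daily on days 1–3. Plasma taken 20 h after the last dose was protein-precipitated and TMAO quantified by LC-MS/MS against a 0.05-100 μM d9-TMAO calibration curve in control plasma.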
# in vivo = assay: in vivo; parameters: species or system Sprague-Dawley rats; conditions: Sprague-Dawley, rat
# Method: Sprague-Dawley rats (three rats per compound) were treated with a single intravenous (IV) 1 mg/kg dose or orally (PO) a single 10 mg/kg dose. Plasma concentrations of the conjugates were determined by LCMS at 5 minutes, 15 minutes, 30 minutes, 1 hour, 2 hours, 4 hours, 8 and 24 hours post compound administration. […] In addition, the plasma exposure and bioavailability of the active agent of was lower when dosed as a conjugate instead of the active agent alone.
# [5] = Pharmacokinetic study of colon contents and plasma after oral dose of conjugate; assay type: in vivo, male C57B3L/6 mice; conditions: for Cmax: male
# Method: To confirm that the active agent component of the conjugate is released in the gastrointestinal tract, a pharmacokinetic study was conducted in male C57B3L/6 mice examining conjugate and active agent of concentrations in both the colon contents and plasma after oral dose of conjugate. Conjugate and active agent of were quantified by LCMS at 0 (pre-dose), 0.25, 0.5, 1, 2, 4, 6, 8, 12, and 24 hours post-dose of compound.
# CutC from Proteus mirabilis, sequence (B4EYG1 entry or part of it): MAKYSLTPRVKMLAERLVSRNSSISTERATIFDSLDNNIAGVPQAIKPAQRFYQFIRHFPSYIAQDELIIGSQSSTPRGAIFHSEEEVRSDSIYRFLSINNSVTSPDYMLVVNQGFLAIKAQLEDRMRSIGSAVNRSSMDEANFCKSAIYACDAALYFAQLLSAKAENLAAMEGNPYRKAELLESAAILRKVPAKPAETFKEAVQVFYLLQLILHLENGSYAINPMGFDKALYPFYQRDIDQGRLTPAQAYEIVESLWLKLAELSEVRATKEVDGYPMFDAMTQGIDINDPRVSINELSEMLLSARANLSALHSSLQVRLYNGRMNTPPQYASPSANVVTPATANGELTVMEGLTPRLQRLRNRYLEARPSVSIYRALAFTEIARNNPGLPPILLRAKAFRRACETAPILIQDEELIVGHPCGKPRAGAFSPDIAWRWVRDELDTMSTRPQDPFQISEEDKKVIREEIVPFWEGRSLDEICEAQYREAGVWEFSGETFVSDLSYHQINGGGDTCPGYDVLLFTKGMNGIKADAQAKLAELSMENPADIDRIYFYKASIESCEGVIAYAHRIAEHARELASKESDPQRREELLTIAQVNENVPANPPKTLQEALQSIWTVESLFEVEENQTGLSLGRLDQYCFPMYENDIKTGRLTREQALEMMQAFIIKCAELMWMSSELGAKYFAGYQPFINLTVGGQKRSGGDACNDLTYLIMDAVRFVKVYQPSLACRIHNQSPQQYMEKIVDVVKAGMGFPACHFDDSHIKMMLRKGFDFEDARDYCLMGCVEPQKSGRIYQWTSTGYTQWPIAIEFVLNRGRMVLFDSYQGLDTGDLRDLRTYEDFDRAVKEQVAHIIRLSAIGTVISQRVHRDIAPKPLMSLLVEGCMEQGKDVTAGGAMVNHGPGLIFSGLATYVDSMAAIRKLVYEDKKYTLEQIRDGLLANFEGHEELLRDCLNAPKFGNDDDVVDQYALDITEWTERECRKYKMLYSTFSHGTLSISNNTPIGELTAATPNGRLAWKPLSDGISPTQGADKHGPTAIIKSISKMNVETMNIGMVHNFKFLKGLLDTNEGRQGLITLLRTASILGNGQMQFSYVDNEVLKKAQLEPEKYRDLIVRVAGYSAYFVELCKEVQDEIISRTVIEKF
# CutC from Proteus mirabilis, sequence (B4EYG0 entry or part of it, further chain): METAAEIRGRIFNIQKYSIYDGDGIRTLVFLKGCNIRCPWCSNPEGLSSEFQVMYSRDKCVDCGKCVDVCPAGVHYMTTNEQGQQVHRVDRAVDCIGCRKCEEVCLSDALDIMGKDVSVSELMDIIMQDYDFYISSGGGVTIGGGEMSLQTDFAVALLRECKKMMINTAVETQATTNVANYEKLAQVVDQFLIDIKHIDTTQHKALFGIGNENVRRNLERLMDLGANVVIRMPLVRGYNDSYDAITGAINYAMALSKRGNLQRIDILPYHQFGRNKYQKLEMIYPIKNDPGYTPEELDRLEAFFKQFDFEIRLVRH
Compound,IC50 [1] [µM],Assay 1- FaSSGF Stability: % Remaining at 1 hr [2] [%],Assay 2- FaSSIF Stability: % Remaining at 4 hr [3] [%],Assay 3- Colonic Material Stability Assay % Remaining at 24 hr [4] [%],other results
"Br.C#CC[N+](C)(C)CC(=O)O[C@@H]1CO[C@H]2[C@@H]1OC[C@@H]2O [Compound 73, N-(2-(((3R,3aR,6S,6aR)-6-hydroxyhexahydrofuro[3,2-b]furan-3-yl)oxy)-2-oxoethyl)-N,N-dimethylprop-2-yn-1-aminium bromide]",≥ 10,107.49,62.73,44,
"C[N+](C)(CF)CCO[C@@H]1O[C@H](CO)[C@@H](O)[C@H](O)[C@H]1O.[Cl-] [Compound 98, (fluoromethyl)dimethyl(2-{[(2R,3R,4S,5S,6R)-3,4,5-trihydroxy-6-(hydroxymethyl)oxan-2-yl]oxy}ethyl)azanium Chloride]",,,,,"% change from vehicle control + choline diet (CutC/D enzyme; Table 4f, 3.70 mg/kg oral gavage days 1-3): −8%; Mean plasma TMAO (CutC/D enzyme; Table 4f, 3.70 mg/kg oral gavage days 1-3, plasma 20 h after last gavage): 29.7 µM; % change from vehicle control + choline diet (CutC/D enzyme; Table 4f, 11.0 mg/kg oral gavage days 1-3): 6%; Mean plasma TMAO (CutC/D enzyme; Table 4f, 11.0 mg/kg oral gavage days 1-3, plasma 20 h after last gavage): 34.3 µM; % change from vehicle control + choline diet (CutC/D enzyme; Table 4f, 36.6 mg/kg oral gavage days 1-3): −69%; Mean plasma TMAO (CutC/D enzyme; Table 4f, 36.6 mg/kg oral gavage days 1-3, plasma 20 h after last gavage): 10.1 µM; Cmax (in vivo; iv, 1 mg/kg): 23600 nM; Cmax (in vivo; po, 10 mg/kg): 306 nM; bioavailability (in vivo; po, 10 mg/kg): 0.72%; Cmax ([5]; C57B3L/6, mouse colon contents after oral dose of conjugate, compound measured = conjugate dosed, read-out: Colon Cmax): 21800 nM; Cmax ([5]; C57B3L/6, mouse plasma after oral dose of conjugate, compound measured = conjugate dosed, read-out: Plasma Cmax): 1300 nM"
"C#CC[N+](C)(C)CCO[C@H]1CO[C@H]2[C@@H]1OC[C@H]2O [Compound 74, N-(2-(((3S,3aR,6R,6aR)-6-hydroxyhexahydrofuro[3,2-b]furan-3-yl)oxy)ethyl)-N,N-dimethylprop-2-yn-1-aminium trifluoroacetate]",≥ 10,107.3,121.56,99,
"C#CC[N+](C)(C)CCO[C@@H]1OC[C@@H](OC(C)=O)[C@H](OC(C)=O)[C@H]1OC(C)=O.[I-] [Compound 8, N,N-dimethyl-N-(2-(((3R,4S,5R)-3,4,5-triacetoxytetrahydro-2H-pyran-2-yl)oxy)ethyl)prop-2-yn-1-aminium iodideiodideiodideiodideiodide]",≥ 10,105.93,113.28,17,"% change from vehicle control + choline diet (CutC/D enzyme; Table 4d, 100 mg/kg oral gavage days 1-3): −33%; Mean plasma TMAO (CutC/D enzyme; Table 4d, 100 mg/kg oral gavage days 1-3, plasma 20 h after last gavage): 12.5 µM"
"CC(=O)OCC1OC(OCC[N+](C)(C)CCl)C(OC(C)=O)C(OC(C)=O)C1OC(C)=O.[I-] (stereo in doubt) [Compound 78, N-(chloromethyl)-N,N-dimethyl-2-(((2S,3S,4R,5S,6S)-3,4,5-triacetoxy-6-(acetoxymethyl)tetrahydro-2H-pyran-2-yl)oxy)ethan-1-aminium Iodide]",,,,,"Cmax (in vivo; iv, 1 mg/kg): 8310 nM; % F (in vivo; po, 10 mg/kg): 1.91%; Cmax (in vivo; po, 10 mg/kg): 130 nM; bioavailability (in vivo; po, 10 mg/kg): 0.99%; Cmax ([5]; C57B3L/6, mouse, in vivo, po): 70 nM; Plasma Cmax ([5]; mouse, in vivo, po): Not"
"C#CC[N+](C)(C)CC(=O)O[C@H]1CO[C@H]2[C@@H]1OC[C@H]2O.O=C([O-])C(F)(F)F [Compound 70, N-(2-(((3S,3aR,6R,6aR)-6-hydroxyhexahydrofuro[3,2-b]furan-3-yl)oxy)-2-oxoethyl)-N,N-dimethylprop-2-yn-1-aminium trifluoroacetate]",≥ 10,98.36,28.06,47,
"C#CC[N+](C)(C)CCO[C@@H]1O[C@H](COC(=O)CCC)[C@@H](OC(=O)CCC)[C@H](OC(=O)CCC)[C@H]1OC(=O)CCC.[I-] [Compound 1, N,N-dimethyl-N-(2-(((2R,3R,4S,5R,6R)-3,4,5-tris(butyryloxy)-6-((butyryloxy)methyl)tetrahydro-2H-pyran-2-yl)oxy)ethyl)prop-2-yn-1-aminium iodide]",,84.79,30.79,80,
